From patent publication US12448389B2, “BRM targeting compounds and associated methods of use” (Prelude Therapeutics Incorporated, priority 2020, dated 2025) come the findings set out here.

For assay [1], the target named is T1, SMARCA2-HiBiT (Homo sapiens, UniProt P51531).
T1 construct: SMARCA2-HiBiT knock-in Hela monoclonal cell (CS302366); host or cells: HeLa monoclonal knock-in line (CRISPR HiBiT knock-in at the endogenous locus, heterozygous)
The assay can be described thus: SMARCA2 HiBiT degradation assay in HeLa cells. The class given is cell-based. To be noted: 18 hours incubation; for DC50: read-out: HeLa_HiBit-SM2 DC50; for Dmax: HeLa, read-out: HeLa-HiBit-SM2 Dmax (%). The gist of the method:
(§1)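 HeLa monoclonal lines with heterozygous HiBiT knock-in were seeded at 2500 cells/well in EMEM with 10% FBS and treated with compound for 18 h at 37 °C. Remaining tagged protein was measured by Nano-Glo HiBiT lytic luminescence after 30–60 min at RT, and values came from curve fitting.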
(In general: The HiBiT peptide binds its large partner to form an active luciferase.)

For assay [2], the target named is T2, SMARCA4-HiBiT (Homo sapiens, UniProt P51532).
T2 construct: SMARCA4-HiBiT knock-in Hela monoclonal cell (CS3023226); host or cells: HeLa monoclonal knock-in line (CRISPR HiBiT knock-in at the endogenous locus, heterozygous)
T2 sequence (P51532 whole entry): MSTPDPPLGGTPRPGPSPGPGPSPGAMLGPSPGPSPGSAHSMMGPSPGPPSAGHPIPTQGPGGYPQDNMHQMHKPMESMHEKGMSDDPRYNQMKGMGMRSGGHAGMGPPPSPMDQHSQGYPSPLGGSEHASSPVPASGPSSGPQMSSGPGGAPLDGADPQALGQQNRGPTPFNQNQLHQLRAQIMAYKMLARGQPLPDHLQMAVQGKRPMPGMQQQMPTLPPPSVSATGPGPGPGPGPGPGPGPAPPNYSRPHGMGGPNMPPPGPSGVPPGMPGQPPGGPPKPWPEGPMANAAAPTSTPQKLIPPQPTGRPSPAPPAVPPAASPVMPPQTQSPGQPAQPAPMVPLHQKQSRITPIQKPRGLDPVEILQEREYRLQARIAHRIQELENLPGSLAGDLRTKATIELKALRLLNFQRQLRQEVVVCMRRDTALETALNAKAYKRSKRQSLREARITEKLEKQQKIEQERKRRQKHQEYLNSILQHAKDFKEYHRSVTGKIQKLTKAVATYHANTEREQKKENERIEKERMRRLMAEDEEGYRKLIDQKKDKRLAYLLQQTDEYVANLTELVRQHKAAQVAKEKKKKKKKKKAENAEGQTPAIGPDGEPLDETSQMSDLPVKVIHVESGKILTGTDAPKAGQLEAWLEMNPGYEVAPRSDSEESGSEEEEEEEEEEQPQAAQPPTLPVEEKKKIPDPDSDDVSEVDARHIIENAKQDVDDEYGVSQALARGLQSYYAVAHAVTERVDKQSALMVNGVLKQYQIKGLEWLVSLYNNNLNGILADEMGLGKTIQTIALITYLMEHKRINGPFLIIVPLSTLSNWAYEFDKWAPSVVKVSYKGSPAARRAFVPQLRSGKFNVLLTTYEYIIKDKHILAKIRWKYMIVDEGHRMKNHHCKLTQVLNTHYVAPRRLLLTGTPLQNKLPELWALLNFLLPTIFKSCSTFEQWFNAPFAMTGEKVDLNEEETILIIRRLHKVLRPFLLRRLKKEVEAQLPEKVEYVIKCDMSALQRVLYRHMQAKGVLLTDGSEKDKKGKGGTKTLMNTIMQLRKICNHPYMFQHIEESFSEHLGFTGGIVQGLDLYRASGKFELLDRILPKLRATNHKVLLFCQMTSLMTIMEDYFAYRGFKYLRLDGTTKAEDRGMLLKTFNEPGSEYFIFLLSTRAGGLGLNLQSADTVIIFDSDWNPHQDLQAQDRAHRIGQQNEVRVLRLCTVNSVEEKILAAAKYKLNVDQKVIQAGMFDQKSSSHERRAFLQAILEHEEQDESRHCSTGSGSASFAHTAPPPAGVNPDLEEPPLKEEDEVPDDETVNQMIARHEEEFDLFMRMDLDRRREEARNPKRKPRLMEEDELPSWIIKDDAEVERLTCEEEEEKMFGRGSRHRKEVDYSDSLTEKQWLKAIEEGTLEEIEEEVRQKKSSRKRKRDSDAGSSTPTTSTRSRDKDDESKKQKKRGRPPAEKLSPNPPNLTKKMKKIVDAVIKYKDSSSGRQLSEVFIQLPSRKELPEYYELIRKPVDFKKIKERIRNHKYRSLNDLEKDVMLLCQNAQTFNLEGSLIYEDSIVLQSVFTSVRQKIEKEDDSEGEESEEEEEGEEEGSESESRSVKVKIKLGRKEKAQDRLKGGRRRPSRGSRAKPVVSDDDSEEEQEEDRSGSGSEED
The assay can be described thus: SMARCA4 HiBiT degradation assay in HeLa cells. The format is cell-based. To be noted: 18 hours incubation; for DC50: read-out: HeLa-HiBit-SM4 DC50; for Dmax: HeLa, read-out: HeLa-HiBit-SM4 Dmax (%). The gist of the method: as §1

T1 sequence (P51531 whole entry): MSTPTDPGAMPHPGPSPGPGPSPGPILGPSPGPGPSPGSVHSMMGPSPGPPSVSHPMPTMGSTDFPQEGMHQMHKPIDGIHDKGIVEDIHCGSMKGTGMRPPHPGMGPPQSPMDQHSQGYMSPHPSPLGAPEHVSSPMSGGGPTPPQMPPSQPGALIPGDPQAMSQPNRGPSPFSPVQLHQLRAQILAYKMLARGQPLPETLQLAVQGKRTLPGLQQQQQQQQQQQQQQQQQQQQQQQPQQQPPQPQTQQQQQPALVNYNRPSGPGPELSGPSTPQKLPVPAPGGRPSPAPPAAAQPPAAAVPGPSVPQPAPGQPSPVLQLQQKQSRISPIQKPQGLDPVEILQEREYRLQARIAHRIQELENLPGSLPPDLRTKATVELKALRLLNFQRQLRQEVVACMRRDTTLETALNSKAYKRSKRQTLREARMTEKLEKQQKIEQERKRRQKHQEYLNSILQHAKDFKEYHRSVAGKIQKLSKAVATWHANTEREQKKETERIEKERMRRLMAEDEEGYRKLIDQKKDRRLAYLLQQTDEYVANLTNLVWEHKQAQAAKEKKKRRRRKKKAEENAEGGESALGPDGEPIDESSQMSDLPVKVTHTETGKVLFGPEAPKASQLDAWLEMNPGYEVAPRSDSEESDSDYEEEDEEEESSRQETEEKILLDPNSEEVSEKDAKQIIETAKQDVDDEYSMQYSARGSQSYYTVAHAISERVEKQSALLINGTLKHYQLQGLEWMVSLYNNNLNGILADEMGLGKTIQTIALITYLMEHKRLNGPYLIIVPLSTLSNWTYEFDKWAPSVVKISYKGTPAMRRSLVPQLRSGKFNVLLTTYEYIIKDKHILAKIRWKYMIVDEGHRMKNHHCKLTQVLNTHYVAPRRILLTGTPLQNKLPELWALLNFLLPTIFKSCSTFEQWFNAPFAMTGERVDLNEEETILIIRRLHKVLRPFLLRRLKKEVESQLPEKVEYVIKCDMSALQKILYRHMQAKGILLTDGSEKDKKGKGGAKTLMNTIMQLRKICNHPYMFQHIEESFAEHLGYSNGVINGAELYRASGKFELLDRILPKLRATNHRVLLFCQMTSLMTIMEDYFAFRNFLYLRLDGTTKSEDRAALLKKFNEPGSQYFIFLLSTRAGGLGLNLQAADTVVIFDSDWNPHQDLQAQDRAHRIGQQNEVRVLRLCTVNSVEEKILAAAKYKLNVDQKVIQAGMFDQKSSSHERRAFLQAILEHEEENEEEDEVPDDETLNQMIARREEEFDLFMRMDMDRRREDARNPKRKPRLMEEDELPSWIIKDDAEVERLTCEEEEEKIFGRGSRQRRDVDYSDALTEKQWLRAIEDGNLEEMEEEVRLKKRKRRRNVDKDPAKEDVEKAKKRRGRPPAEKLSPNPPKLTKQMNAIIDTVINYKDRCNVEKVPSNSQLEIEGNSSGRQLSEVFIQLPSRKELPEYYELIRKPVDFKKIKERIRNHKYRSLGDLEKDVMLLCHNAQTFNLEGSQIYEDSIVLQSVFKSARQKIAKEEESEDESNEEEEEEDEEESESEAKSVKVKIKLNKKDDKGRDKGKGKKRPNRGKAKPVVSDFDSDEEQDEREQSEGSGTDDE

What is called DC50 is the midpoint of the concentration-degradation curve. As usually defined, the Dmax is the largest share of the target that was removed. As to `CC1CN(c2ccc3c(c2)C(=O)N(C2CCC(=O)NC2=O)C3=O)CCC1CN1C[C@@H]2[C@H](C1)[C@H]2CN1CCN2c3cc(-c4ccccc4O)nnc3NC[C@H]2C1` (stereo partly drawn) [Example 197, 2-(2,6-dioxopiperidin-3-yl)-5-(4-(((1R,5S,6r)-6-(((S)-2-(2-hydroxyphenyl)-5,6,6a,7,9,10-hexahydro-8H-pyrazino[1′,2′:4,5]pyrazino[2,3-c]pyridazin-8-yl)methyl)-3-azabicyclo[3.1.0]hexan-3-yl)methyl)-3-methylpiperidin-1-yl)isoindoline-1,3-dione], in assay [1], the DC50 was below 10 nM and the Dmax is above 85%. For the same compound, in assay [2], the “HeLa-HiBit-SM4 Dmax (%)” value is reported as “B (B=75%<Dmax<=85%)” and the 50% degradation concentration (DC50) is below 10 nM.

Take `CC(COc1ccc2c(c1)CN([C@@H]1CCC(=O)NC1=O)C2=O)N1CCC(N2CCN3c4cc(-c5ccccc5O)nnc4NC[C@H]3C2)CC1` (stereo partly drawn) [Example 215, (3R)-3-(5-(2-(4-((S)-2-(2-hydroxyphenyl)-5,6,6a,7,9,10-hexahydro-8H-pyrazino[1′,2′:4,5]pyrazino[2,3-c]pyridazin-8-yl)piperidin-1-yl)propoxy)-1-oxoisoindolin-2-yl)piperidine-2,6-dione]: the DC50 is below 10 nM in assay [1] and 10 to 100 nM in assay [2]. Besides, the greatest degradation seen (Dmax) in assay [1] and in assay [2] was 50 to 75% in each case.

Take `O=C1CCC(N2C(=O)c3ccc(N4CCCC(N5CCC(CN6CCN7c8cc(-c9ccccc9O)nnc8NC[C@H]7C6)CC5)C4)cc3C2=O)C(=O)N1` (stereo partly drawn) [Example 218, 2-(2,6-dioxopiperidin-3-yl)-5-(4-(((S)-2-(2-hydroxyphenyl)-5,6,6a,7,9,10-hexahydro-8H-pyrazino[1′,2′:4,5]pyrazino[2,3-c]pyridazin-8-yl)methyl)-[1,3′-bipiperidin]-1′-yl) isoindoline-1,3-dione]: in assay [1], the 50% degradation concentration (DC50) is below 10 nM and the Dmax was above 85%. Also, in assay [2], the DC50 is below 10 nM and the Dmax lay in the range of 75 to 85%.

For `O=C1CCC(N2C(=O)c3ccc(N4CCC(F)(CN5C[C@@H]6[C@@H](CN7CCN8c9cc(-c%10ccccc%10O)nnc9NC[C@H]8C7)[C@@H]6C5)CC4)cc3C2=O)C(=O)N1` (stereo partly drawn) [Example 149, 2-(2,6-dioxopiperidin-3-yl)-5-(4-fluoro-4-(((1R,5S,6s)-6-(((S)-2-(2-hydroxyphenyl)-5,6,6a,7,9,10-hexahydro-8H-pyrazino[1′,2′:4,5]pyrazino[2,3-c]pyridazin-8-yl)methyl)-3-azabicyclo[3.1.0]hexan-3-yl)methyl)piperidin-1-yl)isoindoline-1,3-dione], in assay [1], the DC50 is below 10 nM and the greatest degradation seen (Dmax) lay in the range of 50 to 75%. Besides, in assay [2], the DC50 was 10 to 100 nM and the Dmax fell in the range of 50 to 75%.

With `O=C1CCC(N2C(=O)c3ccc(N4C[C@@H]5CN(C6CCC(C(=O)N7CCN8c9cc(-c%10ccccc%10O)nnc9NC[C@H]8C7)CC6)C[C@H]5C4)cc3C2=O)C(=O)N1` (stereo partly drawn) [Example 98, 2-(2,6-dioxopiperidin-3-yl)-5-((3aS,6aS)-5-(4-((S)-2-(2-hydroxyphenyl)-6,6a,7,8,9,10-hexahydro-5H-pyrazino[1′,2′:4,5]pyrazino[2,3-c]pyridazine-8-carbonyl)cyclohexyl)hexahydropyrrolo[3,4-c]pyrrol-2(1H)-yl) isoindoline-1,3-dione], in assay [1], the 50% degradation concentration (DC50) was below 10 nM and the Dmax lay within 75 to 85%. For the same compound, in assay [2], the DC50 was below 10 nM and the Dmax was above 85%.

For the compound `CC(C1CCN(CC2CCN(c3ccc4c(c3)C(=O)N(C3CCC(=O)NC3=O)C4=O)CC2)CC1)N1CCN2c3cc(-c4ccccc4O)nnc3NC[C@H]2C1` (stereo partly drawn) [Example 32, 2-(2,6-dioxopiperidin-3-yl)-5-(4-((4-(1-((S)-2-(2-hydroxyphenyl)-5,6,6a,7,9,10-hexahydro-8H-pyrazino[1′,2′:4,5]pyrazino[2,3-c]pyridazin-8-yl)ethyl)piperidin-1-yl)methyl)piperidin-1-yl)isoindoline-1,3-dione], in assay [1], the 50% degradation concentration (DC50) was below 10 nM and the Dmax was above 85%. Further, in assay [2], the half-maximal degradation concentration (DC50) is below 10 nM and the Dmax was above 85%.

For `CC1(C)CN(CC2CCN(c3ccc4c(c3)C(=O)N(C3CCC(=O)NC3=O)C4)CC2)CCN1C(=O)N1CCN2c3cc(-c4ccccc4O)nnc3NC[C@H]2C1` (stereo partly drawn) [Example 105, 3-(6-(4-((4-((S)-2-(2-hydroxyphenyl)-6,6a,7,8,9,10-hexahydro-5H-pyrazino[1′,2′:4,5]pyrazino[2,3-c]pyridazine-8-carbonyl)-3,3-dimethylpiperazin-1-yl)methyl)piperidin-1-yl)-1-oxoisoindolin-2-yl)piperidine-2,6-dione], in assay [1], the half-maximal degradation concentration (DC50) is below 10 nM and the Dmax was above 85%. Besides, in assay [2], the 50% degradation concentration (DC50) was below 10 nM and the Dmax was above 85%.

Consider `O=C1CCC(N2Cc3ccc(N4CCC(CN5CCN(C(=O)N6CCN7c8cc(-c9ccccc9O)nnc8NC[C@H]7C6)CC5)CC4)cc3C2=O)C(=O)N1` (stereo partly drawn) [Example 95, 3-(6-(4-((4-((S)-2-(2-hydroxyphenyl)-6,6a,7,8,9,10-hexahydro-5H-pyrazino [1′,2′:4,5]pyrazino[2,3-c]pyridazine-8-carbonyl)piperazin-1-yl)methyl)piperidin-1-yl)-1-oxoisoindolin-2-yl)piperidine-2,6-dione], for which, in assay [1], the DC50 was below 10 nM and the greatest degradation seen (Dmax) is above 85%. Further, in assay [2], the DC50 is below 10 nM and the Dmax lay within 75 to 85%.

On to `O=C1CCC(N2C(=O)c3ccc(N4CCC5(CN6CCC(CN7CCN8c9cc(-c%10ccccc%10O)nnc9NC[C@H]8C7)CC6)CC5C4)cc3C2=O)C(=O)N1` (stereo partly drawn) [Example 189, 2-(2,6-dioxopiperidin-3-yl)-5-[6-[[4-[[(10S)-4-(2-hydroxyphenyl)-1,5,6,8,12-pentazatricyclo[8.4.0.02,7]tetradeca-2(7),3,5-trien-12-yl]methyl]piperidin-1-yl]methyl]-3-azabicyclo[4.1.0]heptan-3-yl]isoindole-1,3-dione], for which, in assay [1], the half-maximal degradation concentration (DC50) was below 10 nM and the maximal degradation (Dmax) lay within 75 to 85%. Also, in assay [2], the DC50 was below 10 nM and the maximal degradation (Dmax) fell in the range of 75 to 85%.

On to `O=C1CCC(N2Cc3cc(N4CCC(CN5C[C@@H]6[C@H](C5)[C@H]6CN5CCN6c7cc(-c8ccccc8O)nnc7NC[C@H]6C5)CC4)ccc3C2=O)C(=O)N1` (stereo partly drawn) [Example 92, 3-(5-(4-(((1R,5S,6r)-6-(((S)-2-(2-hydroxyphenyl)-5,6,6a,7,9,10-hexahydro-8H-pyrazino[1′,2′:4,5]pyrazino[2,3-c]pyridazin-8-yl)methyl)-3-azabicyclo[3.1.0]hexan-3-yl)methyl)piperidin-1-yl)-1-oxoisoindolin-2-yl)piperidine-2,6-dione], for which, in assay [1], the 50% degradation concentration (DC50) is below 10 nM and the Dmax is above 85%. Besides, in assay [2], the DC50 is below 10 nM and the maximal degradation (Dmax) fell in the range of 75 to 85%.

Consider `O=C1CCC(N2Cc3ccc(N4CCC(CN5CCN(C(=O)N6CCN7c8cc(-c9ccccc9O)nnc8NC[C@H]7C6)C(C(F)(F)F)C5)CC4)cc3C2=O)C(=O)N1` (stereo partly drawn) [Example 100, 3-(6-(4-((4-((S)-2-(2-hydroxyphenyl)-6,6a,7,8,9,10-hexahydro-5H-pyrazino[1′,2′:4,5]pyrazino[2,3-c]pyridazine-8-carbonyl)-3-(trifluoromethyl)piperazin-1-yl)methyl)piperidin-1-yl)-1-oxoisoindolin-2-yl)piperidine-2,6-dione], for which the 50% degradation concentration (DC50) in assay [1] is below 10 nM; in assay [2], 10 to 100 nM. Further, the maximal degradation (Dmax) in assay [1] and in assay [2] was 75 to 85% in each case.
